Measured values: patent publication US20090143279A1 (priority 2007, published 2009)
Read-outs that look alike come from different tables or passages of the source.

Tests used:
[1] = system: mitochondrial membrane potential; type: cell-based, mouse
[2] = system: cellular dehydrogenase activity
cytochrome c = type: cell-based, mouse
nuOXPHOS transcripts = type: cell-based, mouse
OXPHOS gene expression = type: cell-based, mouse
mtOXPHOS transcripts = type: cell-based, mouse
reactive oxygen species = type: cell-based, mouse
[3] = composite Z-score vs mock-treated (DMSO) wells, concentration of each compound in μM
[4] = Conc 20 μM, normalized score vs mock-treated (DMSO) wells
[5] = composite Z-score vs DMSO, Conc 20 μM
[6] = composite Z-score vs mock-treated (DMSO) wells, Conc 20 μM
[7] = 20 μM, composite Z-score vs DMSO
[8] = composite Z-score vs DMSO wells, Conc 20 μM
[9] = normalized composite Z-score vs mock-treated (DMSO) wells, Conc 20 μM

C/C1=C2/[N-][C@H]([C@H](CC(N)=O)[C@@]2(C)CCC(=O)NC[C@@H](C)OP(=O)([O-])O[C@H]2[C@@H](O)[C@@H](n3cnc4cc(C)c(C)cc43)O[C@@H]2CO)[C@]2(C)N=C(/C(C)=C3N=C(/C=C4N=C1[C@@H](CCC(N)=O)C\4(C)C)[C@@H](CCC(N)=O)[C@]\3(C)CC(N)=O)[C@@H](CCC(N)=O)[C@]2(C)CC(N)=O.[Co] [cobalamine]
ΔΨm [1, 3]: 0.097 | MTT [2, 3]: −1.369 | cyt c (cytochrome c; [3]): −0.617 | Viability (C2C12 myotubes; [3]): −0.821 | nucOX (nuOXPHOS transcripts; [3]): −0.373 | GE-HTS (OXPHOS gene expression; [3]): −0.402 | mitoOX (mtOXPHOS transcripts; [3]): −0.393 | ROS (reactive oxygen species; [3]): 2.944

COC1=C(OC)C(=O)C(C/C=C(\C)CC/C=C(\C)CC/C=C(\C)CC/C=C(\C)CC/C=C(\C)CC/C=C(\C)CC/C=C(\C)CC/C=C(\C)CC/C=C(\C)CCC=C(C)C)=C(C)C1=O [coenzyme Q10]
ΔΨm (composite Z-score) [1, 4]: 0.920 | MTT (composite Z-score) [2, 4]: −1.758 | cyt c (composite Z-score) (cytochrome c; [4]): 0.636 | Viability (composite Z-score) (C2C12 myotubes; [4]): 0.166 | nucOX (composite Z-score) (nuOXPHOS transcripts; [4]): 0.391 | GE-HTS (composite Z-score) (OXPHOS gene expression; [4]): 0.366 | mitoOX (composite Z-score) (mtOXPHOS transcripts; [4]): 0.226 | ROS (composite Z-score) (reactive oxygen species; [4]): 1.179

COc1cc2c(c(OC)c1OC)-c1ccc(=O)c(O)cc1[C@@H](NC(C)=O)CC2 [colchiceine]
ΔΨm [1, 5]: −0.812 | MTT [2, 5]: −3.186 | cyt c (cytochrome c; [5]): −0.908 | Viability (C2C12 myotubes; [5]): −0.333 | nucOX (nuOXPHOS transcripts; [5]): 1.935 | GE-HTS (OXPHOS gene expression; [5]): 1.832 | mitoOX (mtOXPHOS transcripts; [5]): 1.192 | ROS (reactive oxygen species; [5]): 0.469

COc1cc(/C=C/CO)ccc1O [coniferyl alcohol]
ΔΨm (composite Z-score) [1, 4]: −0.719 | MTT (composite Z-score) [2, 4]: −1.094 | cyt c (composite Z-score) (cytochrome c; [4]): 0.296 | Viability (composite Z-score) (C2C12 myotubes; [4]): −0.771 | nucOX (composite Z-score) (nuOXPHOS transcripts; [4]): −0.688 | GE-HTS (composite Z-score) (OXPHOS gene expression; [4]): −0.593 | mitoOX (composite Z-score) (mtOXPHOS transcripts; [4]): −0.251 | ROS (composite Z-score) (reactive oxygen species; [4]): −0.450

C[C@]12CCC(=O)C=C1CC[C@@H]1[C@@H]2C(=O)C[C@@]2(C)[C@H]1CC[C@]2(O)C(=O)CO [cortisone]
ΔΨm [1, 5]: −0.232 | MTT [2, 5]: −0.146 | cyt c (cytochrome c; [5]): −0.078 | Viability (C2C12 myotubes; [5]): 0.644 | nucOX (nuOXPHOS transcripts; [5]): −0.165 | GE-HTS (OXPHOS gene expression; [5]): −0.428 | mitoOX (mtOXPHOS transcripts; [5]): −0.830 | ROS (reactive oxygen species; [5]): 0.527

O=c1cc(-c2ccc(O)cc2)oc2cc(O[C@@H]3O[C@H](CO)[C@@H](O)[C@H](O)[C@H]3O)cc(O)c12 [cosmosiin]
ΔΨm [1, 5]: 0.053 | MTT [2, 5]: −0.801 | cyt c (cytochrome c; [5]): −0.009 | Viability (C2C12 myotubes; [5]): 0.141 | nucOX (nuOXPHOS transcripts; [5]): −0.287 | GE-HTS (OXPHOS gene expression; [5]): −0.433 | mitoOX (mtOXPHOS transcripts; [5]): −0.611 | ROS (reactive oxygen species; [5]): −0.052

COc1c2c(cc3c1OCO3)CC[N+](C)=C2 [cotarnine]
ΔΨm [1, 6]: −1.103 | MTT [2, 6]: −0.587 | cyt c (cytochrome c; [6]): 0.068 | Viability (C2C12 myotubes; [6]): −0.398 | nucOX (nuOXPHOS transcripts; [6]): 0.159 | GE-HTS (OXPHOS gene expression; [6]): 0.049 | mitoOX (mtOXPHOS transcripts; [6]): −0.151 | ROS (reactive oxygen species; [6]): −0.007

COc1ccccc1/C=C/C(=O)O [coumarinic acid methyl ether]
ΔΨm (composite Z-score) [1]: −1.070 | MTT (composite Z-score) [2]: −2.099 | cyt c (composite Z-score) (cytochrome c): 0.170 | Viability (composite Z-score) (C2C12 myotubes): −0.844 | nucOX (composite Z-score) (nuOXPHOS transcripts): 0.031 | GE-HTS (composite Z-score) (OXPHOS gene expression): 0.143 | mitoOX (composite Z-score) (mtOXPHOS transcripts): 0.383 | ROS (composite Z-score) (reactive oxygen species): 0.917

C=C1C(=O)O[C@H]2C[C@@H]1C(OC(C)=O)C/C(C)=C/CC/C(C)=C/CC[C@@]2(C)O (stereo partly shown) [crassin acetate]
ΔΨm [1, 6]: 0.374 | MTT [2, 6]: −1.220 | cyt c (cytochrome c; [6]): −1.840 | Viability (C2C12 myotubes; [6]): −2.757 | nucOX (nuOXPHOS transcripts; [6]): −0.685 | GE-HTS (OXPHOS gene expression; [6]): −0.720 | mitoOX (mtOXPHOS transcripts; [6]): −0.703 | ROS (reactive oxygen species; [6]): −1.394

CC(C)(O)CC[C@@H](O)[C@](C)(O)[C@H]1CC[C@@]2(O)C3=CC(=O)[C@@H]4C[C@@H](O)[C@@H](O)C[C@]4(C)[C@H]3CC[C@]12C [crustecdysone]
ΔΨm (composite Z-score) [1, 4]: −0.721 | MTT (composite Z-score) [2, 4]: −0.545 | cyt c (composite Z-score) (cytochrome c; [4]): 0.468 | Viability (composite Z-score) (C2C12 myotubes; [4]): −0.458 | nucOX (composite Z-score) (nuOXPHOS transcripts; [4]): 0.487 | GE-HTS (composite Z-score) (OXPHOS gene expression; [4]): 0.354 | mitoOX (composite Z-score) (mtOXPHOS transcripts; [4]): 0.062 | ROS (composite Z-score) (reactive oxygen species; [4]): 0.657

NC1(C(=O)O)CCCC1 [cycloleucine]
ΔΨm [1, 7]: −0.765 | MTT [2, 7]: −1.310 | cyt c (cytochrome c; [7]): 0.822 | Viability (C2C12 myotubes; [7]): −1.300 | nucOX (nuOXPHOS transcripts; [7]): −0.495 | GE-HTS (OXPHOS gene expression; [7]): −0.839 | mitoOX (mtOXPHOS transcripts; [7]): −1.397 | ROS (reactive oxygen species; [7]): 0.024

CN(C)CCOC(=O)C(c1ccccc1)C1(O)CCCC1 (stereo not shown) [cyclopentolate]
ΔΨm [1, 8]: −0.072 | MTT [2, 8]: −0.756 | cyt c (cytochrome c): 0.859 | cyt c (cytochrome c; [8]): −0.283 | Viability (C2C12 myotubes; [8]): −0.300 | nucOX (nuOXPHOS transcripts; [8]): 0.830 | GE-HTS (OXPHOS gene expression; [8]): 0.556 | mitoOX (mtOXPHOS transcripts; [8]): −0.037 | ROS (reactive oxygen species; [8]): −0.406

CC(=O)C1=C(O)[C@@H]2[C@H]3c4c[nH]c5cccc(c45)C[C@H]3C(C)(C)N2C1=O [cyclopiazonic acid]
ΔΨm [1, 5]: 0.863 | MTT [2, 5]: −1.107 | cyt c (cytochrome c; [5]): 0.033 | Viability (C2C12 myotubes; [5]): −1.392 | nucOX (nuOXPHOS transcripts; [5]): 0.163 | GE-HTS (OXPHOS gene expression; [5]): 0.186 | mitoOX (mtOXPHOS transcripts; [5]): 0.172 | ROS (reactive oxygen species; [5]): −0.293

CO[C@H]1C[C@H](O[C@H]2CC[C@]3(C=O)[C@H]4CC[C@]5(C)[C@@H](C6=CC(=O)OC6)CC[C@]5(O)[C@@H]4CC[C@]3(O)C2)O[C@H](C)[C@H]1O [cymarin]
ΔΨm (composite Z-score) [1, 4]: −0.996 | MTT (composite Z-score) [2, 4]: −1.849 | cyt c (composite Z-score) (cytochrome c; [4]): 0.356 | Viability (composite Z-score) (C2C12 myotubes; [4]): −1.155 | nucOX (composite Z-score) (nuOXPHOS transcripts; [4]): −0.412 | GE-HTS (composite Z-score) (OXPHOS gene expression; [4]): −0.473 | mitoOX (composite Z-score) (mtOXPHOS transcripts; [4]): −0.464 | ROS (composite Z-score) (reactive oxygen species; [4]): 0.695

CC(=O)[C@@]1(O)CC[C@H]2[C@@H]3C=C(Cl)C4=CC(=O)[C@@H]5C[C@@H]5[C@]4(C)[C@H]3CC[C@@]21C [cyproterone]
ΔΨm [1, 5]: −0.962 | MTT [2, 5]: 0.079 | cyt c (cytochrome c; [5]): 0.548 | Viability (C2C12 myotubes; [5]): 0.014 | nucOX (nuOXPHOS transcripts; [5]): −0.461 | GE-HTS (OXPHOS gene expression; [5]): −0.490 | mitoOX (mtOXPHOS transcripts; [5]): −0.446 | ROS (reactive oxygen species; [5]): 1.155

CC(=O)O[C@H]1C[C@@H](OC(C)=O)C(C)(C)C2CC(=O)[C@]3(C)C(CC[C@@]4(C)[C@H](C(=O)O)OC(=O)C5OC543)[C@]21C (stereo partly shown) [deacetoxy(7)-7-oxokhivorinic acid]
ΔΨm [1, 9]: −0.539 | MTT [2, 9]: −1.282 | cyt c (cytochrome c; [9]): 0.816 | Viability (C2C12 myotubes; [9]): −0.174 | nucOX (nuOXPHOS transcripts; [9]): −0.937 | GE-HTS (OXPHOS gene expression; [9]): −0.919 | mitoOX (mtOXPHOS transcripts; [9]): −0.664 | ROS (reactive oxygen species; [9]): 2.352

CC1(C)C=CC(=O)[C@@]2(C)C1CC(=O)[C@]1(C)C2CC[C@@]2(C)[C@H](c3ccoc3)OC(=O)C3OC321 (stereo partly shown) [deacetoxy-7-oxisogedunin]
ΔΨm (composite Z-score) [1, 4]: 0.332 | MTT (composite Z-score) [2, 4]: −0.791 | cyt c (composite Z-score) (cytochrome c; [4]): 0.153 | Viability (composite Z-score) (C2C12 myotubes; [4]): −0.301 | nucOX (composite Z-score) (nuOXPHOS transcripts; [4]): 0.821 | GE-HTS (composite Z-score) (OXPHOS gene expression; [4]): 0.816 | mitoOX (composite Z-score) (mtOXPHOS transcripts; [4]): 0.694 | ROS (composite Z-score) (reactive oxygen species; [4]): 0.898

CC1(C)C(=O)C=C[C@]2(C)[C@H]3CC[C@@]4(C)[C@H](c5ccoc5)OC(=O)[C@H]5O[C@]54[C@]3(C)C(=O)C[C@@H]12 [deacetoxy-7-oxogedunin]
ΔΨm [1, 6]: 1.322 | MTT [2, 6]: −0.029 | cyt c (cytochrome c; [6]): 0.047 | Viability (C2C12 myotubes; [6]): 0.089 | nucOX (nuOXPHOS transcripts; [6]): −0.287 | GE-HTS (OXPHOS gene expression; [6]): −0.407 | mitoOX (mtOXPHOS transcripts; [6]): −0.632 | ROS (reactive oxygen species; [6]): −0.301
